ChEMBL document CHEMBL1201862, “PubChem BioAssay data set” (2004)
The source made the active and inactive calls.

System: not listed separately
Test: Luminescence Cell-Based Dose Confirmation HTS to Identify Inhibitors of Platelet Dense Granule Release. [Related pubchem assays: 1663 (Primary HTS), 1678 (Summary of Project)]
Assay type: functional

**Q.** For `CCOC(=O)c1ccc(COC(=O)c2ccc(-c3nnc(-c4ccccc4)o3)cc2)o1`, which EC50 is on record?
**A.** Its EC50 is 8.77 µM (active).

**Q.** For `COc1ccc(CCNC(=O)c2cc3c(=O)n4ccccc4nc3n(Cc3ccco3)c2=N)cc1OC`, which EC50 is on record?
**A.** Its EC50 is 44 µM (active).

**Q.** Which EC50 does the source give for `COC(=O)c1oc2ccc(Br)cc2c1-n1cccc1` here?
**A.** Its EC50 is > 112 µM (not active).

**Q.** Which EC50 does the source give for `Cc1cc(-c2nnc(CCC(=O)NC(C)c3cccc4ccccc34)o2)no1` (stereo unspecified) here?
**A.** Its EC50 is > 112 µM (not active).

**Q.** For `Cc1cc(OC(C)C(=O)NCc2ccncc2)c2c3c(c(=O)oc2c1)CCC3` (stereo unspecified), which EC50 is on record?
**A.** The EC50 was > 112 µM (not active).

**Q.** Which EC50 does the source give for `COC(=O)c1sc(N)c(C(=O)OC)c1COC(=O)CNS(=O)(=O)c1ccc(C)cc1` here?
**A.** Its EC50 is > 112 µM (not active).

**Q.** For `Cc1ccc(C2=[N+]([O-])C3(CCCCC/C3=N\O)N(O)C2(C)C)o1` (stereo unspecified), which EC50 is on record?
**A.** Its EC50 is > 112 µM (not active).

Molecular target: T1, Carboxy-terminal domain RNA polymerase II polypeptide A small phosphatase 1 (Homo sapiens, UniProt Q9GZU7)
T1 sequence (Q9GZU7 whole entry): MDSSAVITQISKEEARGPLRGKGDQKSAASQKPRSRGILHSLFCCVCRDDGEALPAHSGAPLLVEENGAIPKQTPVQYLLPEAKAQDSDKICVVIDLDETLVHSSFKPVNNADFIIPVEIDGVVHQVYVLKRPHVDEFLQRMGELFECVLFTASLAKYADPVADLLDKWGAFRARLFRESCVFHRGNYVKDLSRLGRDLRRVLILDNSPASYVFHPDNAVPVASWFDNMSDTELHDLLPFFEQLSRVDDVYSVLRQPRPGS
Test: inhibitors of CTDSP1, concentration-response testing, biochemical assay, absorbance-based, actives from ultra-high-throughput screening (AID 540297)
Assay type: functional

**Q.** For `Cc1cc(C(=O)COc2ccc3ccc(=O)oc3c2)c(C)n1Cc1cccs1`, which IC50 is on record?
**A.** Its IC50 is 6.2 µM (active).

**Q.** Which IC50 does the source give for `C=CCOc1ccc(/C=C\c2nc(O)c([N+](=O)[O-])c(O)n2)cc1OC` here?
**A.** Its IC50 is 13.7 µM (active).

**Q.** With `Cc1c(CC(=O)O)c(=O)oc2c(C)c3occ(-c4ccc(Br)cc4)c3cc12` as the molecule, how does the IC50 read?
**A.** Its IC50 is 7.37 µM (active).

**Q.** With `O=C(Nc1cc(S(=O)(=O)N2CCCCC2)ccc1Cl)C1COc2ccccc2O1` (stereo unspecified) as the molecule, how does the IC50 read?
**A.** Its IC50 is 46.4 µM (active).

**Q.** Which IC50 does the source give for `O=C(Cc1ccccc1)N/N=C/c1ccc(OCC(=O)Nc2ccccc2)cc1` here?
**A.** Its IC50 is 10.2 µM (active).

Molecular target: Luciferin 4-monooxygenase (Photinus pyralis, UniProt P08659)
Sequence (P08659 whole entry): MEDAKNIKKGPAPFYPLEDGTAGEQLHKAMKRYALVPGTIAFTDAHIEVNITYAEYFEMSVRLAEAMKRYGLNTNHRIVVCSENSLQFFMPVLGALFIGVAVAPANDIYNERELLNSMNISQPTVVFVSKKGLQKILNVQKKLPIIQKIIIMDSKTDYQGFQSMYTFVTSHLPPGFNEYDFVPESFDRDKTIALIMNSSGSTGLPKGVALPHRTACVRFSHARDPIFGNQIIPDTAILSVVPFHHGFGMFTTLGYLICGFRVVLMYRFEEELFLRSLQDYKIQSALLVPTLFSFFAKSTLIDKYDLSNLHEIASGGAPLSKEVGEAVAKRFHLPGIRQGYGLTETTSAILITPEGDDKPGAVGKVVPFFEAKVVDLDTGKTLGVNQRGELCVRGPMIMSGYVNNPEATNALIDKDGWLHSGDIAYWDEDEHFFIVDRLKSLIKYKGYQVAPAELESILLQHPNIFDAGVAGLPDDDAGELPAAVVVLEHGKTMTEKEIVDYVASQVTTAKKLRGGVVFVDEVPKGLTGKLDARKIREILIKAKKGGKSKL
Test: firefly luciferase enzyme inhibitors, dose response, biochemical, luminescence (AID 1891)

**Q.** With `CCOC(=O)c1ccc(COC(=O)c2ccc(-c3nnc(-c4ccccc4)o3)cc2)o1` as the molecule, how does the EC50 read?
**A.** The EC50 was 28.5 µM (active).

**Q.** Which EC50 does the source give for `COc1ccc(CCNC(=O)c2cc3c(=O)n4ccccc4nc3n(Cc3ccco3)c2=N)cc1OC` here?
**A.** Its EC50 is > 112 µM (not active).

**Q.** Which EC50 does the source give for `COC(=O)c1oc2ccc(Br)cc2c1-n1cccc1` here?
**A.** The EC50 was > 112 µM (not active).

**Q.** For `Cc1cc(-c2nnc(CCC(=O)NC(C)c3cccc4ccccc34)o2)no1` (stereo unspecified), which EC50 is on record?
**A.** The EC50 was > 112 µM (not active).

**Q.** Which EC50 does the source give for `Cc1cc(OC(C)C(=O)NCc2ccncc2)c2c3c(c(=O)oc2c1)CCC3` (stereo unspecified) here?
**A.** Its EC50 is > 112 µM (not active).

**Q.** For `COC(=O)c1sc(N)c(C(=O)OC)c1COC(=O)CNS(=O)(=O)c1ccc(C)cc1`, which EC50 is on record?
**A.** Its EC50 is > 112 µM (not active).

**Q.** Which EC50 does the source give for `Cc1ccc(C2=[N+]([O-])C3(CCCCC/C3=N\O)N(O)C2(C)C)o1` (stereo unspecified) here?
**A.** Its EC50 is > 112 µM (not active).

Molecular target: T2, Ubiquitin-conjugating enzyme E2 N (Homo sapiens, UniProt P61088);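 note: Dose-response confirmation in a TR-FRET assay detecting UBC13-driven polyubiquitin chain formation, inhibition measured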
T2 sequence (P61088 whole entry): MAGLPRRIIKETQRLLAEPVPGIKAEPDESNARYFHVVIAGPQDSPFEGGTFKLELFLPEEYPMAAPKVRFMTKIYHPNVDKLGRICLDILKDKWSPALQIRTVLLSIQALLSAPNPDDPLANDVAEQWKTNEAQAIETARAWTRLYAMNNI
Test: not given
Assay type: functional

**Q.** Which IC50 does the source give for `Cc1ccccc1CN1CCC(CNC(=O)C2CCCN(c3ncnc4c3nc3n4CCCCC3)C2)CC1` (stereo unspecified) here?
**A.** Its IC50 is > 20 µM (inactive).

**Q.** Which IC50 does the source give for `CCOC(=O)C1=C(c2ccccc2)O/C(=C(\C(=O)OC)C(F)(F)F)S1` here?
**A.** The IC50 was > 20 µM (inactive).

**Q.** For `CCCCCc1cc(=O)oc2c(C(CCN3CCCC3)c3cc(OC)c(OC)c(OC)c3)c(OC)cc(OC)c12` (stereo unspecified), which IC50 is on record?
**A.** The IC50 was > 20 µM (inactive).

**Q.** For `C#CCOCCOCCOCCNc1nc(N2CCOCC2)nc(N2CCN(C(=O)CCCCCCCCCCNC(=O)[C@H](CO)n3cc(CCCCCN)nn3)CC2)n1`, which IC50 is on record?
**A.** Its IC50 is > 20 µM (inactive).

**Q.** Which IC50 does the source give for `COC(=O)C1=C(C)N(Cc2ccccc2)C(NCc2cc(OC)c(OC)c(OC)c2)=N[C@H]1c1ccc(Br)cc1` here?
**A.** The IC50 was > 20 µM (inactive).

**Q.** Which IC50 does the source give for `O=C1NC2(CCCCCC2)N=C1c1ccc(Br)cc1` here?
**A.** Its IC50 is > 20 µM (inactive).

System: not listed separately
Test: cells
Assay type: functional

**Q.** For `CCOC(=O)c1ccc(COC(=O)c2ccc(-c3nnc(-c4ccccc4)o3)cc2)o1`, which IC50 is on record?
**A.** The IC50 was > 50 µM (active).
